Experimental data as given in patent publication US5053070A, “Pyrimidine derivatives, preparation processes thereof, herbicide containing the same, and herbicidal compositions containing the same along with other active ingredient” (Mitsui Toatsu Chemicals, Incorporated, priority 1988, dated 1991).

Columns and labels:
foxtail meadow = assay: Upland soil application test (Test 2); type: in vivo; details: 30 g ai/a, soil spray before emergence, 30 days later
In short: (§1)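 Pre-emergence soil spray, greenhouse. Weed seeds mixed through upland soil; crops sown alongside. Day 1 post-sowing: wettable-powder formulation, water-diluted, applied at 10 l/are by pressure ULV sprayer. Read at 30 days as air-dried weight vs untreated pots, scored on a graded damage scale.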

large crabgrass = assay: Upland soil application test (Test 2); type: in vivo; details: 30 g ai/a, soil spray before emergence, 30 days later
In short: as §1

redroot pigweed [1] = assay: Upland soil application test (Test 2); type: in vivo; details: 30 g ai/a, soil spray before emergence, 30 days later
In short: as §1

green foxtail [2] = assay: Upland soil application test (Test 2); type: in vivo; details: 30 g ai/a, soil spray before emergence, 30 days later
In short: as §1

johnsongrass [3] = assay: Upland soil application test (Test 2); type: in vivo; details: 30 g ai/a, soil spray before emergence, 30 days later
In short: as §1

barnyardgrass [4] = assay: Upland soil application test (Test 2); type: in vivo; details: 30 g ai/a, soil spray before emergence, 30 days later
In short: as §1

common lambsquarters = assay: Upland soil application test (Test 2); type: in vivo; details: 30 g ai/a, soil spray before emergence, 30 days later
In short: as §1

[5] = system: ALS (acetolactate syntase); assay: ALS enzyme assay (Test 1); type: biochemical, pea; details: 1,000 ppm (0.5 mg/0.5 ml)
In short: (§2)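 Partially purified ALS from dark-grown pea and barnyardgrass seedlings incubated 1 h at 30° C with pyruvate, TPP, MgCl2 and FAD. Compounds tested at 1,000 ppm (0.5 mg/0.5 ml). Acetoin formed detected colorimetrically at 525 nm via creatine/α-naphthol, relative to blank and acid-stopped controls.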

cotton = assay: Upland soil application test (Test 2), crop injury; type: in vivo; details: 30 g ai/a, soil spray before emergence, 30 days later
In short: (§3)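 Damage was graded 30 days after treatment by comparing air-dried plant weight with that of plants in untreated pots. Test compound, given as a diluted wettable powder, had been sprayed on the soil surface one day after sowing, before any weeds emerged.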

soybean = assay: Upland soil application test (Test 2), crop injury; type: in vivo; details: 30 g ai/a, soil spray before emergence, 30 days later
In short: as §3

peanut = assay: Upland soil application test (Test 2), crop injury; type: in vivo; details: 30 g ai/a, soil spray before emergence, 30 days later
In short: as §1

[6] = system: ALS (acetolactate syntase); assay: ALS enzyme assay (Test 1); type: biochemical, barnyardgrass; details: 1,000 ppm (0.5 mg/0.5 ml)
In short: as §2

green foxtail [7] = assay: Upland foliar application test by mixed formulations (Test 7); type: in vivo; details: Setaria viridis, 720 h, applied alone, 30th day, read-out: Herbicidal effects (%) Green foxtail Ea; for pest or weed control at 1000 g/ha: 1 kg/ha; for pest or weed control at 300 g/ha: 0.3 kg/ha
Description: (§4) Resin-made 1/10,000-are pots were filled with the soil of an upland field. Redroot pigweed, morningglories, johnsongrass, barnyardgrass and green foxtail were separately seeded and were allowed to germinate in a green house. When each plant grew to the stage of 2-3 leaves, an emulsion formulated from predetermined amounts of two test compounds of different kinds in a similar manner to the method described in Formulation Example 16 was diluted with water to a predetermined dilution rate and then sprayed at an application rate equal to 5 l per are onto the foliage of each plant by means of a pressure-operated ULV (ultra low volume) sprayer. Influence to the weeds were observed on the 30th day after the spray of the herbicides. In the table, each Ea means an acutally measured value of herbicidal activities when two kinds of herbicides were mixed. Each Ec is an expected value for herbicidal activities, calculated in accordance with the below-described calculation formula proposed by Colby et al. [Colby, S. R., Weed 15, 20-22 (1967)]. Ea>Ec indicates the existence of synergistic action while […] action. [formula] Ec: Growth inhibition rate (%) expected when Ingredient I and Ingredient II are mixed.
(§5) Ex: Growth inhibition rate (%) when treated with Ingredient I alone.
(§6) Ey: Growth inhibition rate (%) when treated with Ingredient II alone.

johnsongrass [8] = assay: as above; type: in vivo; details: Sorghum halepense, 720 h, applied alone, 30th day, read-out: Herbicidal effects (%) Johnsongrass Ea; for pest or weed control at 300 g/ha: 0.3 kg/ha
Description: as §4, §5, §6

barnyardgrass [9] = assay: as above; type: in vivo; details: Echinochloa crus-galli, 720 h, applied alone, 30th day, read-out: Herbicidal effects (%) Barnyardgrass Ea; for pest or weed control at 1000 g/ha: 1 kg/ha; for pest or weed control at 300 g/ha: 0.3 kg/ha
Description: as §4, §5, §6

morningglories = assay: as above; type: in vivo; details: Ipomoea, 720 h, applied alone, 30th day, read-out: Herbicidal effects (%) Morningglory Ea; for pest or weed control at 1000 g/ha: 1 kg/ha; for pest or weed control at 300 g/ha: 0.3 kg/ha
Description: as §4, §5, §6

redroot pigweed [10] = assay: as above; type: in vivo; details: Amaranthus retroflexus, 720 h, applied alone, 30th day, read-out: Herbicidal effects (%) Redrood pigweed Ea; for pest or weed control at 300 g/ha: 0.3 kg/ha
Description: as §4, §5, §6

Compound | Herbicidal effects Foxtail meadow (foxtail meadow) | Herbicidal effects Large crabgrass (large crabgrass) | Herbicidal effects Redroot pigweed (redroot pigweed [1]) | Herbicidal effects Green foxtail (green foxtail [2]) | Herbicidal effects Johnsongrass (johnsongrass [3]) | Herbicidal effects Barnyardgrass (barnyardgrass [4]) | Herbicidal effects Common lambsquarters (common lambsquarters) | Inhibitory activity (%) Pea [5] | Injury Cotton (cotton) | Injury Soybean (soybean) | Injury Peanut (peanut) | Inhibitory activity (%) Barnyardgrass [6] | pest or weed control at 300 g/ha (redroot pigweed [10]) | pest or weed control at 300 g/ha (green foxtail [7]) | pest or weed control at 300 g/ha (johnsongrass [8]) | pest or weed control at 300 g/ha (barnyardgrass [9]) | pest or weed control at 300 g/ha (morningglories) | other results
COc1cc(OC)nc(Oc2ccccc2C=NOC2CCCCC2)n1 [Compound No. 3] | 3 (11-40 (Medium damages)) | 3 (11-40 (Medium damages)) | 3 (11-40 (Medium damages)) | 4 (6-10 (Severe damages)) | 4 (6-10 (Severe damages)) | 3 (11-40 (Medium damages)) | 3 (11-40 (Medium damages)) | 0% | 0 (91-100 (No damages)) | 0 (91-100 (No damages)) | 0 (91-100 (No damages)) | 22% |  |  |  |  |  | pest or weed control at 1000 g/ha (green foxtail [7]): 20%; pest or weed control at 1000 g/ha (johnsongrass [8]; 1 kg/ha): 40%; pest or weed control at 1000 g/ha (barnyardgrass [9]): 40%; pest or weed control at 1000 g/ha (morningglories): 0%
COc1cc(OC)nc(Oc2ccccc2C=NOCC=C(C)C)n1 [Compound No. 7] | 5 (0-5 (Death)) | 5 (0-5 (Death)) | 4 (6-10 (Severe damages)) | 5 (0-5 (Death)) | 5 (0-5 (Death)) | 5 (0-5 (Death)) | 4 (6-10 (Severe damages)) | 0% | 0 (91-100 (No damages)) | 0 (91-100 (No damages)) | 0 (91-100 (No damages)) | 84% | 30% | 50% | 40% | 30% | 10% | 
C=C(Cl)CON=Cc1ccccc1Oc1nc(OC)cc(OC)n1 [Compound No. 14] | 5 (0-5 (Death)) | 5 (0-5 (Death)) | 4 (6-10 (Severe damages)) | 5 (0-5 (Death)) | 5 (0-5 (Death)) | 5 (0-5 (Death)) | 4 (6-10 (Severe damages)) | 0% | 0 (91-100 (No damages)) | 0 (91-100 (No damages)) | 0 (91-100 (No damages)) | 56% | 85% | 30% | 30% | 85% | 0% | 
COc1cc(OC)nc(Oc2ccccc2C=NO)n1 [Compound No. 24, 2-(4,6-dimethoxy-2-pyrimidinyloxy)-benzaloxime] | 5 (0-5 (Death)) | 4 (6-10 (Severe damages)) | 4 (6-10 (Severe damages)) | 5 (0-5 (Death)) | 5 (0-5 (Death)) | 4 (6-10 (Severe damages)) | 4 (6-10 (Severe damages)) | 0% | 0 (91-100 (No damages)) | 0 (91-100 (No damages)) | 0 (91-100 (No damages)) | 36% | 50% | 20% | 20% | 50% | 0% | 
COc1cc(OC)nc(Oc2ccccc2C=NOCC=Cc2ccccc2Cl)n1 [Compound No. 27] | 5 (0-5 (Death)) | 5 (0-5 (Death)) | 5 (0-5 (Death)) | 5 (0-5 (Death)) | 5 (0-5 (Death)) | 4 (6-10 (Severe damages)) | 4 (6-10 (Severe damages)) | 12% | 0 (91-100 (No damages)) | 0 (91-100 (No damages)) | 0 (91-100 (No damages)) | 100% | 50% | 30% | 30% | 50% | 10% | 
COc1cc(OC)nc(Oc2ccccc2C=NOCC=CCl)n1 [compound 11] | 5 (0-5 (Death)) | 5 (0-5 (Death)) | 5 (0-5 (Death)) | 5 (0-5 (Death)) | 5 (0-5 (Death)) | 5 (0-5 (Death)) | 4 (6-10 (Severe damages)) | 0% | 0 (91-100 (No damages)) | 0 (91-100 (No damages)) | 0 (91-100 (No damages)) | 43% |  |  |  |  |  | pest or weed control at 1000 g/ha (redroot pigweed [10]; 1 kg/ha): 30%; pest or weed control at 1000 g/ha (green foxtail [7]): 10%; pest or weed control at 1000 g/ha (barnyardgrass [9]): 30%; pest or weed control at 1000 g/ha (morningglories): 0%
COc1cc(OC)nc(Oc2ccccc2C=NOCc2cccc(C)c2)n1 [compound 20] | 5 (0-5 (Death)) | 5 (0-5 (Death)) | 5 (0-5 (Death)) | 5 (0-5 (Death)) | 5 (0-5 (Death)) | 3 (11-40 (Medium damages)) | 4 (6-10 (Severe damages)) | 0% | 0 (91-100 (No damages)) | 0 (91-100 (No damages)) | 0 (91-100 (No damages)) | 58% | 30% | 10% |  | 30% | 10% | 
COc1cc(OC)nc(Oc2ccccc2C=NOCC=Cc2ccccc2Br)n1 [compound 40] | 5 (0-5 (Death)) | 4 (6-10 (Severe damages)) | 5 (0-5 (Death)) | 4 (6-10 (Severe damages)) | 4 (6-10 (Severe damages)) | 5 (0-5 (Death)) | 4 (6-10 (Severe damages)) | 0% | 0 (91-100 (No damages)) | 0 (91-100 (No damages)) | 0 (91-100 (No damages)) | 94% | 20% | 10% |  | 20% | 0% | 
